This note sets out measurements from patent US20150246025A1, “2-PHENYL-5-HETEROCYCLYL-TETRAHYDRO-2H-PYRAN-3-AMINE COMPOUNDS FOR USE IN THE TREATMENT OF DIABETES AND ITS ASSOCIATED DISORDERS” (CADILA HEALTHCARE LIMITED, priority 2012, published 2015).

Assay [1] concerns the target T1, DPP-IV enzyme (Homo sapiens, UniProt P27487).
T1 construct: soluble human proteins (DPP-IV enzyme) produced in a baculovirus expression system; made in house; host or cells: baculovirus expression system (Life Technologies)
Nature of the assay: In vitro DPP-IV inhibitory activity using enzymatic (fluorescence-based) assay. The note with it: soluble human DPP-IV, H-Gly-Pro-AMC 200 μM, pH 7.8, 25° C., 30 min; read-out: % In-vitro DPPIV Inhibition IC50. Format: biochemical. How it is done:
In Vitro DPP-IV Inhibitory Activity Using Enzymatic Assay:
In vitro enzyme (DPP-IV) inhibitory activity was determined using fluorescence-based assay (Anal. Biochem., 200, 352, 1992). The Gly-Pro-AMC was used as a substrate (which is cleaved by the enzymes to release the fluorescent AMC) and soluble human proteins (DPP-IV enzyme) produced in a baculovirus expression system (Life Technologies) was used as the enzyme source. The H-Gly-Pro-AMC (200 μM) was incubated with DPP-IV enzyme in the presence of various concentrations (30 & 100 nM) of test compounds. Reaction was carried out at pH 7.8 (HEPES buffer 25 mM containing 1.0% BSA, 140 mM NaCl, 16 mM MgCl2, 2.8% DMSO) in a total volume of 100 μl at 25° C. for 30 min., in the dark. Reaction was terminated with acetic acid (25 μl of 25% solution). Activity (fluorescence) was measured using Spectra Max fluorometer (Molecular Devices, Sunnyvale Calif.) by exciting at 380 nm and emission at 460 nm.

Assay [2] concerns C57BL/6J mice. Briefly: In vivo antihyperglycaemic/antidiabetic activity (OGTT), acute single dose 120-min time-course. The note with it: Mus musculus, 2 h; male C57BL/6J mice, acute single dose 0,3 mg/kg po, 120-min time-course, n = 6, Mean ± SEM; read-out: In vivo OGTT C57; % Glucose change. How it is done: Acute single dose 120-min time-course experiments were carried out in male C57BL/6J mice, age 8-12 weeks, bred in-house. Animals were housed in groups of 6 animals per cage, for a week, in order to habituate them to vivarium conditions (25±4° C., 60-65% relative humidity, 12: 12 h light: dark cycle, with lights on at 7.30 am). All the animal experiments were carried out according to the internationally valid guidelines following approval by the ‘Zydus Research Center animal ethical committee’.
The in-vivo glucose lowering properties of the test compounds were evaluated in C57BL/6J (mild hyperglycemic) animal models as described below. Two days prior to the study, the animals were randomized and divided into groups (n=6), based upon their fed glucose levels. On the day of experiment, food was withdrawn from all the cages, water was given ad-libitum and were kept for overnight fasting. Vehicle (normal saline)/test compounds were administered orally, on a body weight basis. Soon after the 0 min. blood collection from each animal, the subsequent blood collections were done at 30, 60 and 120 or upto 240 min., via retro-orbital route, under light ether anesthesia (Diabetes Obesity Metabolism, 7, 307, 2005; Diabetes, 52, 751, 2003).
Blood samples were centrifuged and the separated serum was immediately subjected for the glucose estimation. Serum for insulin estimation was stored at −70° C. until used for the insulin estimation. The glucose estimation was carried out with DPEC-GOD/POD method (Ranbaxy Fine Chemicals Limited, Diagnostic division, India), using Spectramax-190, in 96-microwell plate reader (Molecular devices Corporation, Sunnyvale, Calif.). […] The AUC and BCAUC obtained from graphs were analyzed for one way ANOVA, followed by Dunnett's post test, using Graph Pad prism software.

T1 sequence (P27487 39-766 limits assumed): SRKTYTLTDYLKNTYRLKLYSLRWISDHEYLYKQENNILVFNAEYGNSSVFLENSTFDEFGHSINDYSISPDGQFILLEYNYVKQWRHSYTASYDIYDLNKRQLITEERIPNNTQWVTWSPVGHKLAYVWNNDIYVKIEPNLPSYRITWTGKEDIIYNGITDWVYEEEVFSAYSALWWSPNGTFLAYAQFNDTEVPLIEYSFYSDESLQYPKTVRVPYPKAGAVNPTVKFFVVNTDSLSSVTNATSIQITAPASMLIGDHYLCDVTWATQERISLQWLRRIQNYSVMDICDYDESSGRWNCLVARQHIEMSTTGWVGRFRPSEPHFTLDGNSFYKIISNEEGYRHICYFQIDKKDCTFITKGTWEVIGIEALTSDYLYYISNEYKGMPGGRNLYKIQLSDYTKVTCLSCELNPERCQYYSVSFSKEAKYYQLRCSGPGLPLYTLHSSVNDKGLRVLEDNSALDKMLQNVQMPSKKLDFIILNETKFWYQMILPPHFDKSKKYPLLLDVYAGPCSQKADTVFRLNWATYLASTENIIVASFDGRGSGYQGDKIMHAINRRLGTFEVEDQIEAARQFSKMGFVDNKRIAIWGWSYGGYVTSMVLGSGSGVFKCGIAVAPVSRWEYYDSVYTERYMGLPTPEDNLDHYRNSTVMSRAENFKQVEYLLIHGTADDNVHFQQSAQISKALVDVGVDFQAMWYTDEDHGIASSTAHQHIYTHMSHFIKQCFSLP

As to `CC(C)C(=O)N1CC2=C(C1)CN([C@H]1CO[C@H](c3cc(F)ccc3F)[C@@H](N)C1)C2` [Compound 24, 1-(5-((3R,5S,6R)-5-amino-6-(2,5-difluorophenyl)tetrahydro-2H-pyran-3-yl)-5,6-dihydropyrrolo[3,4-c]pyrrol-2(1H,3H,4H)-yl)-2-methylpropan-1-one], the half-maximal inhibitory concentration (IC50) in assay [1] was less than 0.03 µM. Also, in assay [2], the change in vivo at 0.3 mg/kg was -18.9 ± 5.7%.
For `N[C@H]1C[C@@H](N2CC3=C(CN(C(=O)C4CCCC4)C3)C2)CO[C@@H]1c1cc(F)ccc1F` [Compound 25, (5-((3R,5S,6R)-5-amino-6-(2,5-difluorophenyl)tetrahydro-2H-pyran-3-yl)-5,6-dihydropyrrolo[3,4-c]pyrrol-2(1H,3H,4H)-yl)(cyclopentyl)methanone], in that order: less than 0.03 µM and -12.2 ± 2.5%.
For `N[C@H]1C[C@@H](N2CC3=C(CN(C(=O)C4CCCCC4)C3)C2)CO[C@@H]1c1cc(F)ccc1F` [Compound 26, (5-((3R,5S,6R)-5-amino-6-(2,5-difluorophenyl)tetrahydro-2H-pyran-3-yl)-5,6-dihydropyrrolo[3,4-c]pyrrol-2(1H,3H,4H)-yl)(cyclohexyl)methanone], in that order: less than 0.03 µM and -20.1 ± 1.4%.
Take `COC(=O)N1CC2=C(C1)CN([C@H]1CO[C@H](c3cc(F)ccc3F)[C@@H](N)C1)C2` [Compound 27, (2R,3S,5R)-2-(2,5-difluorophenyl)-5-(5-(methoxycarbonyl)-5,6-dihydropyrrolo-[3,4-c]pyrrol-2(1H,3H,4H)-yl)tetrahydro-2H-pyran-3-amine]: the 50% inhibitory concentration (IC50) in assay [1] was less than 0.01 µM. For the same compound, the change in vivo at 0.3 mg/kg in assay [2] was -13.7 ± 1.2%.
For `CCOC(=O)N1CC2=C(C1)CN([C@H]1CO[C@H](c3cc(F)ccc3F)[C@@H](N)C1)C2` [Compound 28, (2R,3S,5R)-2-(2,5-difluorophenyl)-5-(5-(ethoxycarbonyl)-5,6-dihydropyrrolo[3,4-c]pyrrol-2(1H,3H,4H)-yl)tetrahydro-2H-pyran-3-amine], in that order: less than 0.01 µM and -35 ± 6.1%.
For `N[C@H]1C[C@@H](N2CC3=C(C2)CN(S(=O)(=O)C(F)(F)F)C3)CO[C@@H]1c1cc(F)ccc1F` [Compound 29, (2R,3S,5R)-2-(2,5-difluorophenyl)-5-(5-((trifluoromethyl)sulfonyl)-5,6-dihydropyrrolo[3,4-c]pyrrol-2(1H,3H,4H)-yl)tetrahydro-2H-pyran-3-amine], in that order: less than 0.03 µM and -27.7 ± 3.1%.
Consider `CCS(=O)(=O)N1CC2=C(CN([C@H]3CO[C@H](c4cc(F)ccc4F)[C@@H](N)C3)C2)C1` [Compound 30, (2R,3S,5R)-2-(2,5-difluorophenyl)-5-(5-(ethylsulfonyl)-5,6-dihydropyrrolo[3,4-c]pyrrol-2(1H,3H,4H)-yl)tetrahydro-2H-pyran-3-amine], for which, in assay [1], the IC50 was less than 0.01 µM. In assay [2], the change in vivo at 0.3 mg/kg is -35 ± 1.4%.
Turning to `CC(C)S(=O)(=O)N1CC2=C(CN([C@H]3CO[C@H](c4cc(F)ccc4F)[C@@H](N)C3)C2)C1` [Compound 31, (2R,3S,5R)-2-(2,5-difluorophenyl)-5-(5-(isopropylsulfonyl)-5,6-dihydropyrrolo[3,4-c]pyrrol-2(1H,3H,4H)-yl)tetrahydro-2H-pyran-3-amine], the concentration for half-maximal inhibition (IC50) in assay [1] was less than 0.01 µM. Also, the change in vivo at 0.3 mg/kg in assay [2] is -28.1 ± 3.2%.
On the same counts, the results for `N[C@H]1C[C@@H](N2CC3=C(C2)CN(S(=O)(=O)c2ccccc2)C3)CO[C@@H]1c1cc(F)ccc1F` [Compound 32, (2R,3S,5R)-2-(2,5-difluorophenyl)-5-(5-(phenylsulfonyl)-5,6-dihydropyrrolo[3,4-c]pyrrol-2(1H,3H,4H)-yl)tetrahydro-2H-pyran-3-amine] are less than 0.01 µM and -25.3 ± 3.9%.
On the same counts, the results for `N[C@H]1C[C@@H](N2CC3=C(C2)CN(S(=O)(=O)c2ccc(F)cc2)C3)CO[C@@H]1c1cc(F)ccc1F` [Compound 33, (2R,3S,5R)-2-(2,5-difluorophenyl)-5-(5-((4-fluorophenyl)sulfonyl)-5,6-dihydropyrrolo[3,4-c]pyrrol-2 (1H,3H,4H)-yl)tetrahydro-2H-pyran-3-amine] are less than 0.03 µM and -16.8 ± 1.6%.
On the same counts, the results for `N#Cc1ccc(S(=O)(=O)N2CC3=C(CN([C@H]4CO[C@H](c5cc(F)ccc5F)[C@@H](N)C4)C3)C2)cc1` [Compound 34, 4-((5-((3R,5S,6R)-5-amino-6-(2,5-difluorophenyl)tetrahydro-2H-pyran-3-yl)-5,6-dihydropyrrolo[3,4-c]pyrrol-2(1H,3H,4H)-yl)sulfonyl)benzonitrile] are less than 0.01 µM and -30.1 ± 3.4%.
On to `N[C@H]1C[C@@H](N2CC3=C(C2)CN(S(=O)(=O)c2ccc(OC(F)(F)F)cc2)C3)CO[C@@H]1c1cc(F)ccc1F` [Compound 35, (2R,3S,5R)-2-(2,5-difluorophenyl)-5-(5-((4-(trifluoromethoxy)phenyl)sulfonyl)-5,6-dihydropyrrolo[3,4-c]pyrrol-2(1H,3H,4H)-yl)tetrahydro-2H-pyran-3-amine], for which, in assay [1], the 50% inhibitory concentration (IC50) is less than 0.03 µM. For the same compound, the change in vivo at 0.3 mg/kg in assay [2] is -20.5 ± 3.8%.
On the same counts, the results for `N[C@H]1C[C@@H](N2CC3=C(C2)CN(S(=O)(=O)c2ccc(F)cc2F)C3)CO[C@@H]1c1cc(F)ccc1F` [Compound 36, (2R,3S,5R)-2-(2,5-difluorophenyl)-5-(5-((2,4-difluorophenyl)sulfonyl)-5,6-dihydropyrrolo[3,4-c]pyrrol-2(1H,3H,4H)-yl)tetrahydro-2H-pyran-3-amine] are less than 0.01 µM and -22.2 ± 2.5%.
For `Cc1ccc(S(=O)(=O)N2CC3=C(CN([C@H]4CO[C@H](c5cc(F)ccc5F)[C@@H](N)C4)C3)C2)cc1` [Compound 37, (2R,3S,5R)-2-(2,5-difluorophenyl)-5-(5-tosyl-5,6-dihydropyrrolo[3,4-c]pyrrol-2(1H,3H,4H)-yl)tetrahydro-2H-pyran-3-amine], in that order: less than 0.03 µM and -25.1 ± 3.2%.
In the case of `COc1ccc(S(=O)(=O)N2CC3=C(CN([C@H]4CO[C@H](c5cc(F)ccc5F)[C@@H](N)C4)C3)C2)cc1` [Compound 38, (2R,3S,5R)-2-(2,5-difluorophenyl)-5-(5-((4-methoxyphenyl)sulfonyl)-5,6-dihydropyrrolo[3,4-c]pyrrol-2(1H,3H,4H)-yl)tetrahydro-2H-pyran-3-amine], the IC50 in assay [1] is less than 0.01 µM. The change in vivo at 0.3 mg/kg in assay [2] is -22 ± 2.6%.
`CC(C)c1ccc(S(=O)(=O)N2CC3=C(CN([C@H]4CO[C@H](c5cc(F)ccc5F)[C@@H](N)C4)C3)C2)cc1` [Compound 39, (2R,3S,5R)-2-(2,5-difluorophenyl)-5-(5-((4-isopropylphenyl)sulfonyl)-5,6-dihydropyrrolo[3,4-c]pyrrol-2(1H,3H,4H)-yl)tetrahydro-2H-pyran-3-amine]: the IC50 in assay [1] is less than 0.01 µM. Besides, the change in vivo at 0.3 mg/kg in assay [2] was -25.1 ± 3.6%.
On to `N[C@H]1C[C@@H](N2CC3=C(C2)CN(S(=O)(=O)c2ccc(C(F)(F)F)cc2)C3)CO[C@@H]1c1cc(F)ccc1F` [Compound 40, (2R,3S,5R)-2-(2,5-difluorophenyl)-5-(5-((4-(trifluoromethyl)phenyl)sulfonyl)-5,6-dihydropyrrolo[3,4-c]pyrrol-2(1H,3H,4H)-yl)tetrahydro-2H-pyran-3-amine], for which the concentration for half-maximal inhibition (IC50) in assay [1] is less than 0.03 µM. The change in vivo at 0.3 mg/kg in assay [2] is -14 ± 1.5%.
In the case of `CC(=O)N1CC2=C(C1)CN([C@H]1CO[C@H](c3cc(F)ccc3F)[C@@H](N)C1)C2` [Compound 41, (2R,3S,5R)-5-(5-acetyl-5,6-dihydropyrrolo[3,4-c]pyrrol-2(1H,3H,4H)-yl)-2-(2,5-difluorophenyl)tetrahydro-2H-pyran-3-amine], the IC50 in assay [1] is less than 0.1 µM. Moreover, in assay [2], the change in vivo at 0.3 mg/kg was -6.04 ± 2.6%.
For the compound `CC(C)CS(=O)(=O)N1CC2=C(CN([C@H]3CO[C@H](c4cc(F)ccc4F)[C@@H](N)C3)C2)C1` [Compound 42, (2R,3S,5R)-2-(2,5-difluorophenyl)-5-(5-(isobutylsulfonyl)-5,6-dihydropyrrolo[3,4-c]pyrrol-2(1H,3H,4H)-yl)tetrahydro-2H-pyran-3-amine], in assay [1], the half-maximal inhibitory concentration (IC50) was less than 0.03 µM. Moreover, the change in vivo at 0.3 mg/kg in assay [2] was -25.1 ± 2.8%.
